# Test results taken from patent US20260041649A1, “ANTI-INFLAMMATORY AGENT” (WATANABE OYSTER LABORATORY, CO., LTD., priority 2023, published 2026).
# Tests used:
# [1] = test system: mouse macrophage RAW264.7 cells; experiment: Western blotting of cytokine signalling proteins with or without LPS; assay type: cell-based; conditions: DHMBA 10 μM, 5 hours
# Experimental: Cells (1×10^6 cells/10 ml of medium) were cultured in a DMEM culture medium for 3 days until they reached subconfluence. After that, cells were cultured for another 5 hours in the control group (1% ethanol; DHMBA 0 M) and in the DHMBA-treated group (10 μM) with or without of LPS (100 ng/ml). After the culture, cell lysates were obtained for Western blot assay using specific antibodies against COX-1, COX-2, MAPK, phospho-MAPK, NF-κB p65, STAT3, and β-actin, as shown in FIG. 3.
# Band intensities are presented as fold increase over the controls, under the following conditions: no LPS (FIG. 8B), LPS (100 ng/ml) alone (FIG. 8C), and LPS (100 ng/ml) plus DHMBA (10 μM) (FIG. 8D). Data are presented as the mean±SD of values obtained from 4 dishes using different cell preparations. *: Significant difference (p<0.01) versus the control without LPS (FIG. 8C). *: Significant difference (p<0.01) versus the control with LPS but without DHMBA (FIG. 8D). Statistical analysis was performed using 1-way ANOVA with Tukey-Kramer post-test.
# To measure the expression levels of Cox-1, Cox-2, NF-κB p65, and STAT3, which are involved in cytokine signaling, RAW264.7 cells (1×10^6 cells/10 ml of 100 mm dish) were cultured in a DMEM culture medium containing 10% FS, 1% P/S, and 1% fungizone for 3 days until they reached subconfluence, and then cultured for another 5 hours in the control group (1% ethanol; DHMBA 0 μM as final concentration) and in the DHMBA-treated group (10 μM) with or without LPS (100 ng/ml in the medium). After the culture, the cells attached to the dish were scraped off with a cell lysis buffer and collected for measurement as described in the “Western blotting” section.
# RAW264.7 cells (1×10^6 cells/10 ml of 100 mm dish) were cultured for 3 days in 10% FBS, 1% P/S (1% ethanol), or in the DHMBA-treated group (10 μM). After the culture, the dishes were washed with cold PBS (10 ml) to remove floating and dead cells. The cell lysis buffer (Cell Signaling Technology, Inc., Danvers, MA, USA) supplemented with protease/protein phosphatase inhibitor (Roche Diagnostics, Indianapolis, IN, USA) was added to the cells to collect cell lysates of the adherent cells as described in the previous study. The cell lysates were centrifuged at 17,000×g, 4° C. for 10 min. Protein concentrations in the supernatants were measured using Bio-Rad Protein Assay Dye (Bio-Rad Laboratories, Inc., Hercules, CA, USA) with bovine serum albumin as a standard. The cell lysates were stored at −80° C. until use. The supernatant proteins (40 μg/lane) were separated by SDS-polyacrylamide gel electrophoresis (12% SDS-PAGE) and transferred to a PVDF membrane. The transferred membranes were immunoblotted with specific antibodies against various proteins, including Ras (cat. no. 3339, rabbit), Akt (cat. no. 9272, rabbit), mitogen-activated protein kinase (MAPK; cat. no. 4695, rabbit), phosphorylated MAPK (cat. no. 4370, rabbit), mechanistic target of rapamycin (mTOR; cat. no. 4517, mouse), Rb (cat. no. 9309, mouse), p21 (cat. no. 2947, rabbit), STAT3 (cat. no. 12640, rabbit), COX-1 (cat. no. 48415), COX-2 (cat. no. 4842), and β-actin (cat. no. 3700, mouse), all of which were purchased from Cell Signaling Technology, Inc. (Danvers, MA, USA). Specific antibodies for p53 (cat. no. sc-126, mouse) and NF-κB p65 (cat. no. sc-109, rabbit) were purchased from Santa Cruz Biotechnology Inc. (Santa Cruz, CA, USA). Additionally, rabbit anti-regucalcin antibody (cat. no. HPA029103, rabbit) was obtained from Sigma-Aldrich. Target proteins were incubated overnight at 4° C. with one of the above primary antibodies (1:1,000). After incubation, the membranes were further incubated with horseradish peroxidase-conjugated secondary antibodies (Santa Cruz Biotechnology Inc., cat. no. sc-2005 (mouse) or sc-2305 (rabbit); dilution 1:2000) for 60 min at room temperature, and protein bands were detected using chemiluminescence substrates (cat. no. 34577, Thermo Fisher Scientific Inc., Rockford, IL, USA) on X-ray films. […]
# [2] = test system: RAW264.7 cells cultured with LPS; experiment: Cell proliferation of RAW264.7 cells cultured with LPS; assay type: cell-based, mouse; conditions: DHMBA 1 or 10 μM, LPS 100 ng/ml, 3 days
# Experimental: In FIG. 5A, to examine the effect on cell proliferation, RAW264.7 cells (1×10^5/ml/well) were cultured for 3 days in a DMEM culture medium containing 10% FBS, 1% P/S, and 1% fungizone in the control group (1% ethanol as final concentration) with or without LPS (1, 10, 50, 100, 500 ng/ml). In FIG. 5B, cells (1×10^5/ml per well) were cultured for 3 days in a DMEM culture medium containing 10% FBS, 1% P/S, and 1% fungizone in the DHMBA-treated group (1 or 10 μM) with or without LPS (100 ng/ml). In FIG. 5C, to examine the effect on cell death, cells that had reached subconfluence after 3 days of culture were cultured for another 48 hours in the control group (1% ethanol) with or without LPS (1, 10, 50, 100, or 500 ng/ml). In FIG. 5D, cells that had reached subconfluence were cultured for another 48 hours in the DHMBA-treated group (1 or 10 μM) with or without LPS (100 ng/ml). After the culture, the number of cells attached to the dish was counted. Data are presented as the mean±SD from a total of 8 wells in 2 plates using different cell preparations. *: Significant difference (p<0.01) versus the controls without LPS (gray bars) (FIG. 5A and FIG. 5C) or without DHMBA (gray bars) (FIG. 5B and FIG. 5D). […]
# The number of viable cells was counted under a microscope (Olympus MTV-3) using a hemocytometer (Sigma-Aldrich) and a cell counter (H-102P, Line Seiki Co., Ltd., Tokyo, Japan).
compound,measurement,setting,value
"COc1c(O)cc(CO)cc1O [DHMBA, 3,5-dihydroxy-4-methoxybenzyl alcohol]",LPS-increased level of MAPK,[1]; LPS 100 ng/ml,suppressed
same,LPS-increased level of NF-κB p65,[1]; LPS 100 ng/ml,suppressed
same,LPS-increased level of STAT3,[1]; LPS 100 ng/ml,suppressed
same,LPS-increased level of phospho-MAPK,[1]; LPS 100 ng/ml,suppressed
same,level of COX-1,[1]; without LPS,not altered
same,level of COX-2,[1]; without LPS,not altered
same,level of MAPK,[1]; without LPS,not altered
same,level of NF-κB p65,[1]; without LPS,not altered
same,level of STAT3,[1]; without LPS,not altered
same,level of phospho-MAPK,[1]; without LPS,not altered
same,proliferation of RAW264.7 cells in the presence of LPS,[2],suppressed
